# Data from ChEMBL document CHEMBL4739714, “Inhibitors of cyclin-dependent kinase 12 (cdk12) and uses thereof” (2020).
# Activity calls are given as the source filed them. The rule behind the calls is not given here.
# Key:
# Assay type in all cases: cell-based
# [1] = target: Cyclin-dependent kinase 12 (Homo sapiens) (UniProt Q9NYV4); experiment: Inhibition of biotinylated-THZ1 binding to CDK12 in human Jurkat cells assessed as reduction in cyclin K pull down at 1 uM preincubated for 6 hrs followed by biotinylated-THZ1 addition by Western blotting based pull-down assay
# Chain of Cyclin-dependent kinase 12 (Homo sapiens) (Q9NYV4 whole entry, looked up): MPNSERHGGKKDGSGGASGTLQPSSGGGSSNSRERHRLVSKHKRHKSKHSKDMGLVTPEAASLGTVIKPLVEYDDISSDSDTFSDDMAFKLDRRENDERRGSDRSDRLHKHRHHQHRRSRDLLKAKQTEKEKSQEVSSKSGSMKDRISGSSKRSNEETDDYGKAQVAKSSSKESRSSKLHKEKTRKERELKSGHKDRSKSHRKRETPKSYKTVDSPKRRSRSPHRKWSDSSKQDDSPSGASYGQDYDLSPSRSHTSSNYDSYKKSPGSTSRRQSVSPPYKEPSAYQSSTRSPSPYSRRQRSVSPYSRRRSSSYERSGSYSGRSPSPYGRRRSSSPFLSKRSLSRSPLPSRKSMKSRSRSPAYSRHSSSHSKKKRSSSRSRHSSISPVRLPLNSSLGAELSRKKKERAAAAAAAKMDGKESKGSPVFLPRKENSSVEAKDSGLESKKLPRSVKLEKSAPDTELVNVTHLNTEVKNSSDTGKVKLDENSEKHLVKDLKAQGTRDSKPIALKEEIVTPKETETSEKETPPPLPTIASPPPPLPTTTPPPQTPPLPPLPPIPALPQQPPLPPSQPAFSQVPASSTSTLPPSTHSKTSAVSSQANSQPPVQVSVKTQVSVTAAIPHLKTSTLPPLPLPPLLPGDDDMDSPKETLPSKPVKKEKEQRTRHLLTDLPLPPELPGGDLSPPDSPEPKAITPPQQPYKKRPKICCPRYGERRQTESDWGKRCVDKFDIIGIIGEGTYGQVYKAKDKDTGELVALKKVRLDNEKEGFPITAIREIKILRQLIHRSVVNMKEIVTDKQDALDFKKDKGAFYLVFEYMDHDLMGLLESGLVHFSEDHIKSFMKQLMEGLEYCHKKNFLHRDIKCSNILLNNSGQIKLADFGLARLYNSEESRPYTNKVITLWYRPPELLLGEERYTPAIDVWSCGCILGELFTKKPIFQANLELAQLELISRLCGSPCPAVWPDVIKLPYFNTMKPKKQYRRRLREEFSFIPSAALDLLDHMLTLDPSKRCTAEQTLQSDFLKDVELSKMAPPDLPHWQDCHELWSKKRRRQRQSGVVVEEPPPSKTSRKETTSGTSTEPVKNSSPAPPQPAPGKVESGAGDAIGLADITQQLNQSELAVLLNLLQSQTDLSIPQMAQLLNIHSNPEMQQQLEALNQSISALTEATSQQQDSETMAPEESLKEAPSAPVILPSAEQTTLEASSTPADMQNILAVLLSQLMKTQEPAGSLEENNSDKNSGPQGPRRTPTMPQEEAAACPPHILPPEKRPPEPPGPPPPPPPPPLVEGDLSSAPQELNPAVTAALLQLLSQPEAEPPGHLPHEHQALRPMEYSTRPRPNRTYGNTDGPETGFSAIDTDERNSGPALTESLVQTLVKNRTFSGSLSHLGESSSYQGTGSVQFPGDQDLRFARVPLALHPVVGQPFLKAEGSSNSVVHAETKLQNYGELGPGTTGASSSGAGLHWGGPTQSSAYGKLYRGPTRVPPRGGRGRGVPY
# [2] = target: Cyclin-dependent kinase 7 (Homo sapiens) (UniProt P50613); experiment: Inhibition of biotinylated-THZ1 binding to CDK7 in human Jurkat cells assessed as reduction in cyclin H pull down at 1 uM preincubated for 6 hrs followed by biotinylated-THZ1 addition by Western blotting based pull-down assay
# Chain of Cyclin-dependent kinase 7 (Homo sapiens) (P50613 whole entry): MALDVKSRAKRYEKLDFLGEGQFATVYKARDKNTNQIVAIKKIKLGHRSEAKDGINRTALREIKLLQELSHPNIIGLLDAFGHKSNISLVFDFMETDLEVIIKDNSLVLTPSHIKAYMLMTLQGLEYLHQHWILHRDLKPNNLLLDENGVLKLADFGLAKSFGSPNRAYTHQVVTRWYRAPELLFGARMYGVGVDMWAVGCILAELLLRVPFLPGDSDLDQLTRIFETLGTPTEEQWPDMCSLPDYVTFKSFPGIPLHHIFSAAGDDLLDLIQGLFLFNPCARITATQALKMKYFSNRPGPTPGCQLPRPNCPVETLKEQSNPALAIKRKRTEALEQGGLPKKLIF
# [3] = target: Cyclin-dependent kinase 12/13 (Homo sapiens) (UniProt Q14004+Q9NYV4); experiment: Inhibition of biotinylated-THZ1 binding to CDK12/CDK13 in human Jurkat cells assessed as reduction in cyclin K pull down at 1 uM preincubated for 6 hrs followed by biotinylated-THZ1 addition by Western blotting based pull-down assay
SMILES,inhibition [1],inhibition [2],inhibition [3]
CN(C)C/C=C/C(=O)Nc1ccc(C(=O)N2CCC[C@@H](Nc3ncc(Cl)c(-c4c[nH]c5ccccc45)n3)C2)nc1,inactive,–,–
CN(C)C/C=C/C(=O)Nc1ccc(N2CCC[C@@H](Nc3ncc(Cl)c(-c4c[nH]c5ccccc45)n3)C2)nc1,inactive,inactive,–
C=CC(=O)Nc1ccc(O[C@@H]2CCC[C@@H](Nc3ncc(Cl)c(-c4c[nH]c5ccccc45)n3)C2)cc1,inactive,–,–
C=CC(=O)Nc1ccc(N2CCC[C@@H](Nc3ncc(Cl)c(-c4c[nH]c5ccccc45)n3)C2)nc1,inactive,–,–

# The remaining lines, values ahead:
inhibition [1],inhibition [2],inhibition [3],SMILES
inactive,inactive,Active,CN(C)C/C=C/C(=O)Nc1ccc(O[C@@H]2CCC[C@@H](Nc3ncc(Cl)c(-c4c[nH]c5ccccc45)n3)C2)cc1
inactive,inactive,–,C=CC(=O)Nc1ccc(N2CCC[C@@H](Nc3ncc(Cl)c(-c4c[nH]c5ccccc45)n3)C2)cc1
–,Active,Active,CN(C)C/C=C/C(=O)Nc1ccc(C(=O)Nc2cccc(Nc3ncc(Cl)c(-c4c[nH]c5ccccc45)n3)c2)cc1
